Tested on: Puccinia recondita
Assay: Curative activity against brown rust of wheat (Puccrt K1), potted wheat seedlings cultivar Kanzler
Type: in vivo
Conditions: efficacy in % of untreated control, sprayed 1 day after inoculation, rated after 7 days, read-out: Observed activity (%)
Protocol: The active compounds were prepared separately or jointly as a stock solution with 25 mg of active compound which was made up to 10 ml using a mixture of acetone and/or DMSO and the emulsifier Uniperol® EL (wetting agent having emulsifying and dispersing action based on ethoxylated alkylphenols) in a volume ratio of solvent/emulsifier of 99 to 1. The mixture was then made up to 100 ml with water. This stock solution was diluted with the solvent/emulsifier/water mixture described to the concentration of active compounds stated below.
The visually determined percentages of infected leaf areas or the measured elongation were converted into efficacies in % of the untreated control:
The efficacy (E) is calculated as follows using Abbot's formula: […]
The expected efficacies of mixtures of active compounds were determined using Colby's formula (Colby, S. R. “Calculating synergistic and antagonistic responses of herbicide combinations”, Weeds, 15, pp. 20-22, 1967) and compared with the observed efficacies. […]
Leaves of potted wheat seedlings of the cultivar “Kanzler” were inoculated with a spore suspension of brown rust (Puccinia recondita). […] The extent of the rust fungus development on the leaves was then determined. The visually determined values for the percentage of infected leaf area were initially converted into a mean value and then converted into efficacies in % of the untreated control. […]

Row | SMILES | inhibition at 60 µg/mL (Conc. 0.06 mg/ml) [%] | inhibition at 250 µg/mL (Conc. 0.25 mg/ml) [%]
1 | CCOC(=O)C1CC(=O)C(=C(O)C2CC2)C(=O)C1 (centres unmarked) [Trinexapac-ethyl, trinexapac-ethyl] | 0 | –
2 | Fc1ccc(C2(Cn3cncn3)OC2c2ccccc2Cl)cc1 (centres unmarked) [Epoxiconazole, epoxiconazole] | – | 11

Reference: patent publication US20090111691A1, “Fungicides and Bioregulatory Mixtures” (priority 2005, published 2009)
